Target: T1, Equilibrative nucleoside transporter 1 (Homo sapiens, UniProt Q99808)
T1 sequence (Q99808 whole entry): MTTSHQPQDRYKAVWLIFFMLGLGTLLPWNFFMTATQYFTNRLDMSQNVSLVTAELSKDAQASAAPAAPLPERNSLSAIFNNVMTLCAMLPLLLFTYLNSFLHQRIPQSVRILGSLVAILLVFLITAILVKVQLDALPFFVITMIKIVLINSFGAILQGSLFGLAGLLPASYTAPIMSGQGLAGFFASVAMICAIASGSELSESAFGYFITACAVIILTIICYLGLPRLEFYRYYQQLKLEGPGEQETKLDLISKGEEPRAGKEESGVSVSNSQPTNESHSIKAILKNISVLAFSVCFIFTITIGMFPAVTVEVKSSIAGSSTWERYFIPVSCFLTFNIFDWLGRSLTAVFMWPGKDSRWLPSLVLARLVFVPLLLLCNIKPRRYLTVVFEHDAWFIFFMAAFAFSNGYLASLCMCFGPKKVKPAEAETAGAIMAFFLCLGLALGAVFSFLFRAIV
Experiment: Inhibition of the equilibrative nucleoside transporter (ENT1, SLC29A1) as assessed by GPCR-mediated changes in cell morphology using the impedance-based transporter activity through receptor activation (TRACT) assay (PubChem AID: 1745861)
Assay type: functional, U2OS

IC50: 5.3 nM
SMILES: NC(=O)C1CN(CCCCC(c2ccc(F)cc2)c2ccc(F)cc2)CCN1CC(=O)Nc1c(Cl)cc(N)cc1Cl (stereo unspecified) [DRAFLAZINE]

From ChEMBL document CHEMBL5209562, “Label-free detection of transporter activity via GPCR signalling in living cells: A case for SLC29A1, the equilibrative nucleoside transporter 1” (Sci Rep, 2019)
